How the values were obtained:
mutant strains of HIV-1 = assay: microbe, parasite or virus in culture; format: cell-based; details: for EC50 / Slope: human PBM cells
Method: Cells and viruses. […] Antimicrobial Agents Chemother 1992;36(11): 2423-2431.
Cell pellets were washed, centrifuged, lysed and the proviral DNA extracted as previously described. Cytotoxicity of the compounds was determined using the Promega Cell Titer 96 dye uptake assay (Madison, Wis.) in 1-2 day PHA-stimulated PBM cells after 5 days in culture. The median effective concentration (EC50) and inhibitory concentration (IC50) were derived from the computer-generated median effect plot of the dose-effect data, as described previously. […]
The mutant viruses tested are as follows: xxBRU Pitt (wild type HIV-1; the backbone used to prepare the other site directed mutagens); M184V (methionine to valine change at codon 184); K65R (lysine to arginine change at codon 65); T215Y (threonine to tyrosine change at codon 215); M184V/T215Y (virus with both mutations); 215/41 (virus with two mutations (threonine to tyrosine change at codon 215) and M4 1L (methionine to leucine change at codon 41)); 4X AZT (virus with four mutations associated with AZT therapy); D67N (aspartic acid to asparagine change at codon 67); K70R lysine to arginine change at codon 70); T215Y (defined as above); K219Q (lysine to glutamine change at codon 219); 964 pre (virus from a patient before they were on AZT therapy, and thus AZT sensitive); and 964 post (virus taken from the same patient after they were on AZT therapy, and thus is AZT resistant).

[1] = U.S. Pat. No. 4,916,122; cited from earlier work

Compound: [N-]=[N+]=N[C@H]1C[C@H](n2ccc(=O)[nH]c2=O)O[C@@H]1CO [CS-87, 3′-Azido-2′,3′-dideoxyuridine]
- FI^50 (fold increase EC50) (mutant strains of HIV-1): 87
- EC50 (mutant strains of HIV-1; 4X AZT Pitt.): 17000 nM
- Slope (mutant strains of HIV-1; 4X AZT Pitt.): 0.54
- EC50 (mutant strains of HIV-1; 215/4I Pitt.): 19100 nM
- Slope (mutant strains of HIV-1; 215/4I Pitt.): 0.95
- GFI^90 (fold increase EC90) (mutant strains of HIV-1; AZT-Post (964 post)): 14
- EC50 (mutant strains of HIV-1; AZT-Post (964 post)): 63000 nM
- Slope (mutant strains of HIV-1; AZT-Post (964 post)): 1.64
- EC50 (mutant strains of HIV-1; AZT-Sen. (964 pre)): 11100 nM
- Slope (mutant strains of HIV-1; AZT-Sen. (964 pre)): 0.65 ± 0.08
- sensitivity of AZT-exposed virus (mutant strains of HIV-1; AZT-exposed virus): deceased sensitivity
- EC50 (mutant strains of HIV-1; HIV-1/LAI): 4700 nM
- Slope (mutant strains of HIV-1; HIV-1/LAI): 0.70
- EC50 (mutant strains of HIV-1; Human immunodeficiency virus 1, PBMC, 4X AZT Pitt.): 300 nM
- EC50 (mutant strains of HIV-1; Human immunodeficiency virus 1, PBMC, 215/4I Pitt.): 2100 nM
- EC50 (mutant strains of HIV-1; Human immunodeficiency virus 1, PBMC, AZT-Post (964 post)): 16500 nM
- EC50 (mutant strains of HIV-1; Human immunodeficiency virus 1, PBMC, AZT-Sen. (964 pre)): 400 nM
- EC50 (mutant strains of HIV-1; Human immunodeficiency virus 1, PBMC, HIV-1/LAI): 200 nM
- EC50 (mutant strains of HIV-1; Human immunodeficiency virus 1, PBMC, K65R Pitt.): 1100 nM
- EC50 (mutant strains of HIV-1; Human immunodeficiency virus 1, PBMC, L74V Pitt.): 600 nM
- EC50 (mutant strains of HIV-1; Human immunodeficiency virus 1, PBMC, M184V Pitt.): 600 nM
- EC50 (mutant strains of HIV-1; Human immunodeficiency virus 1, PBMC, M184V/T215Y Pitt.): 1100 nM
- EC50 (mutant strains of HIV-1; Human immunodeficiency virus 1, PBMC, T215Y Pitt.): 300 nM
- EC50 (mutant strains of HIV-1; Human immunodeficiency virus 1, PBMC, xxBRU Pitt. (wild type)): 1100 nM
- EC50 (mutant strains of HIV-1; K65R Pitt.): 12000 nM
- Slope (mutant strains of HIV-1; K65R Pitt.): 0.92 ± 0.07
- EC50 (mutant strains of HIV-1; L74V Pitt.): 3800 nM
- Slope (mutant strains of HIV-1; L74V Pitt.): 1.18 ± 0.10
- EC50 (mutant strains of HIV-1; M184V Pitt.): 2400 nM
- Slope (mutant strains of HIV-1; M184V Pitt.): 1.55
- EC50 (mutant strains of HIV-1; M184V/T215Y Pitt.): 5900 nM
- Slope (mutant strains of HIV-1; M184V/T215Y Pitt.): 1.40
- EC50 (mutant strains of HIV-1; T215Y Pitt.): 2700 nM
- Slope (mutant strains of HIV-1; T215Y Pitt.): 1.00 ± 0.11
- sensitivity of site directed mutant viruses (mutant strains of HIV-1; mutations at other than the 70 codon in the RT region): remain sensitive
- EC50 (mutant strains of HIV-1; xxBRU Pitt. (wild type)): 7300 nM
- Slope (mutant strains of HIV-1; xxBRU Pitt. (wild type)): 1.16
- toxicity compared with AZT [1]: lower toxicity than AZT

From patent US6602664B2 (priority 1998, dated 2003)
